{"source": "patent US20260315462A1", "about": "“METHODS OF TREATING RELAPSING MULTIPLE SCLEROSIS USING AN INHIBITOR OF BRUTON'S TYROSINE KINASE” (Genentech, Inc., priority 2023, published 2026)", "key": {"[1]": {"system": "new or enlarging T2-weighted lesions on brain MRI", "experiment": "New or enlarging T2-weighted lesions on brain MRI, Phase II RMS study (secondary endpoint)", "type": "in vivo, human", "excerpt": "(§1) This Phase II study was undertaken to evaluate the effect of fenebrutinib on brain magnetic resonance imaging (MRI) in participants with RMS. Participants were randomized to receive either fenebrutinib or placebo. In addition to MRI evaluations, participants were also monitored for other clinical outcomes of disease, including disability progression and MS relapse, as described more fully below.\n(§2) Study Design: This clinical trial comprised a double-blind treatment (DBT) phase, where participants were randomized in a 2:1 ratio to receive either 200 mg BID oral fenebrutinib or non-active placebo, administered for 12 weeks. Participants were directed to self-administer two 100 mg tablets in the morning and two 100 mg tablets in the evening by mouth, for a total dose of 400 mg of fenebrutinib (or placebo) every day.\n(§3) A total of 109 adults aged 18-55 with RMS were enrolled in the study: 73 in the fenebrutinib arm, and 36 in the placebo arm. […] Accordingly, the analysis of outcome for the double blind phase of the study included 70 patients in the fenebrutinib arm, and 36 patients in the placebo arm.\n(§4) MRI Measurements: The primary efficacy endpoint for this study was the total number of new gadolinium-enhancing T1 (T1Gd+) lesions on brain MRI measured at Weeks 4, 8, and 12 of administration. The secondary efficacy outcomes were (1) the total number of new or enlarging T2-weighted lesions on brain MRI measured at Weeks 4, 8, and 12, and (2) the proportion of participants free from any new Gd-enhancing T1 lesions and new or enlarging T2-weighted lesions observed on brain MRI at Weeks 4, 8, and 12. Radiologic evaluation for the primary efficacy parameter was performed using a standardized MRI protocol at screening, and at Weeks 4, 8, and 12 for each participant.\nResults: Secondary Endpoint-Total Number of New or Enlarging T2-Weighted Lesions at Weeks 4, 8, and 12 combined: This secondary endpoint was met, and a summary of this secondary endpoint analysis is provided in Table 5. FIG. 3 provides bar graphs illustrating some of the data in these tables and providing additional analyses. In this figure, the large arrows indicate the relative reduction (95% confidence interval) of lesions. The proportion of patients with new/enlarging T2-weighted lesions is the number of participants that have a new lesion at that specific visit alone divided by the number of participants with a scan at that specific visit alone at the indicated week. There was a 95% reduction and only 3.2% of patients with new/enlarging lesions at Week 12."}, "[2]": {"system": "CD69 expression on B cells", "settings": "in vitro human whole blood assay; previously presented Weber M S, et al. AAN 2021; cited from earlier work"}, "[3]": {"system": "new gadolinium-enhancing T1 (T1Gd+) lesions on brain MRI", "experiment": "New gadolinium-enhancing T1 (T1Gd+) lesions on brain MRI, Phase II RMS study (primary endpoint)", "type": "in vivo, human", "excerpt": "as §1, §2, §3\nas §4, with “participant. […]” for “participant.”\nResults: Primary Endpoint (Total Number of New T1 Gd+ Lesions at Weeks 4, 8, and 12, combined): The primary endpoint of this study was met. In the treatment arm (n=70), a 69% relative reduction in new T1 Gd+ lesions was observed, compared to placebo, with a p value of 0.0022. FIG. 2 provides bar graphs illustrating some of the data in these tables, and providing additional analyses. In this figure, the large arrows indicate the relative reduction (95% confidence interval) of lesions. The proportion of patients with new T1 Gd+ lesions is the number of participants that have a new lesion at that specific visit alone divided by the number of participants with a scan at that specific visit alone at the indicated week. […] There was a 90% reduction and only 3.2% of patients with new T1 Gd+ Lesions lesions at Week 12."}, "[4]": {"experiment": "Safety: adverse events in Phase II RMS study", "type": "in vivo, human", "settings": "for Patients with ≥1 AE, %: 200 mg BID oral, 12 weeks, placebo 33.3", "method": "as §2, §3\nResults—Safety Summary: A summary of adverse events (AEs) for patients treated with fenebrutinib, and with placebo, is provided in Table 12."}, "[5]": {"settings": "Week 12, participants with a new lesion at that visit divided by participants with a scan at that visit"}, "[6]": {"settings": "most common AEs, n = 73, placebo 0"}, "[7]": {"settings": "most common AEs, n = 73, placebo 2.8"}}}
{"smiles": "C[C@H]1CN(C2COC2)CCN1c1ccc(Nc2cc(-c3ccnc(N4CCn5c(cc6c5CC(C)(C)C6)C4=O)c3CO)cn(C)c2=O)nc1", "note": "[Fenebrutinib, (S)-2-(3′-(hydroxymethyl)-1-methyl-5-((5-(2-methyl-4-(oxetan-3-yl)piperazin-1-yl)pyridin-2-yl)amino)-6-oxo-1,6-dihydro-[3,4′-bipyridin]-2′-yl)-7,7-dimethyl-2,3,4,6,7,8-hexahydro-1H-cyclopenta[4,5]pyrrolo[1,2-a]pyrazin-1-one]", "values": [{"measurement": "Number of New or Enlarging T2-Weighted Lesions, Mean (SD), Week 4", "setting": "[1]; 200 mg BID oral, Week 4, n = 70, min-max 0-21, placebo 1.222 (2.218)", "result": "1.043 (2.990)"}, {"measurement": "Number of New or Enlarging T2-Weighted Lesions, Mean (SD), Week 8", "setting": "[1]; 200 mg BID oral, Week 8, n = 67, min-max 0-4, placebo 0.824 (1.359)", "result": "0.104 (0.526)"}, {"measurement": "Number of New or Enlarging T2-Weighted Lesions, Mean (SD), Week 12", "setting": "[1]; 200 mg BID oral, Week 12, n = 63, min-max 0-1, placebo 0.545 (1.121)", "result": "0.032 (0.177)"}, {"measurement": "Total Number of New or Enlarging T2-Weighted Lesions", "setting": "[1]; 200 mg BID oral, Weeks 4, 8, and 12 combined, N = 70, 201 scans, placebo 90", "result": 82}, {"measurement": "New or Enlarging T2-Weighted Lesion rate, adjusted", "setting": "[1]; 200 mg BID oral, Weeks 4, 8, and 12 combined, placebo 0.634", "result": 0.168}, {"measurement": "New or Enlarging T2-Weighted Lesion rate, unadjusted", "setting": "[1]; 200 mg BID oral, Weeks 4, 8, and 12 combined, placebo 0.874", "result": 0.408}, {"measurement": "proportion of patients with new/enlarging T2-weighted lesions, Week 12", "setting": "[1]; [5]", "result": 3.2, "unit": "%"}, {"measurement": "Relative Reduction of New or Enlarging T2-Weighted Lesions, Week 4", "setting": "[1]; vs placebo, Week 4, 95% CI −13%, 77%", "result": 49, "unit": "%"}, {"measurement": "Relative Reduction of New or Enlarging T2-Weighted Lesions, Week 8", "setting": "[1]; vs placebo, Week 8, 95% CI 72%, 96%", "result": 90, "unit": "%"}, {"measurement": "Relative Reduction of New or Enlarging T2-Weighted Lesions, Week 12", "setting": "[1]; vs placebo, Week 12, 95% CI 77%, 99%", "result": 95, "unit": "%"}, {"measurement": "Rate Ratio, adjusted (new or enlarging T2-weighted lesions)", "setting": "[1]; vs placebo, Weeks 4, 8, and 12 combined, 95% CI (0.128, 0.550)", "result": 0.265}, {"measurement": "Relative Reduction in new or enlarging T2-weighted lesions", "setting": "[1]; vs placebo, Weeks 4, 8, and 12 combined, 95% CI (45.0%, 87.2%), p-value 0.0004", "result": 73.5, "unit": "%"}, {"measurement": "Relative Reduction of New or Enlarging T2-Weighted Lesions, Weeks 8 and 12", "setting": "[1]; vs placebo, Weeks 8 and 12", "result": 93, "unit": "%"}, {"measurement": "IC90, CD69 (B-cell activation marker)", "setting": "[2]", "result": 43.2, "unit": "ng/mL"}, {"measurement": "Number of New T1 Gd+ Lesions, Mean (SD), Week 4", "setting": "[3]; 200 mg BID oral, Week 4, n = 70, min-max 0-4, placebo 0.389 (0.871)", "result": "0.343 (0.849)"}, {"measurement": "Number of New T1 Gd+ Lesions, Mean (SD), Week 8", "setting": "[3]; 200 mg BID oral, Week 8, n = 67, min-max 0-3, placebo 0.441 (0.960)", "result": "0.045 (0.367)"}, {"measurement": "Number of New T1 Gd+ Lesions, Mean (SD), Week 12", "setting": "[3]; 200 mg BID oral, Week 12, n = 63, min-max 0-1, placebo 0.273 (0.674)", "result": "0.032 (0.177)"}, {"measurement": "Total Number of New T1Gd+ Lesions", "setting": "[3]; 200 mg BID oral, Weeks 4, 8, and 12 combined, N = 70, 201 scans, placebo 38", "result": 29}, {"measurement": "New T1Gd+ Lesion rate, adjusted", "setting": "[3]; 200 mg BID oral, Weeks 4, 8, and 12 combined, Negative Binomial regression model, placebo 0.245", "result": 0.077}, {"measurement": "New T1Gd+ Lesion rate, unadjusted", "setting": "[3]; 200 mg BID oral, Weeks 4, 8, and 12 combined, total lesions divided by total number of scans, placebo 0.369", "result": 0.144}, {"measurement": "proportion of patients with new T1 Gd+ lesions, Week 12", "setting": "[3]; [5]", "result": 3.2, "unit": "%"}, {"measurement": "patients with new T1 Gd+ lesions after week four", "setting": "[3]; after week four of treatment", "result": "Few patients had new lesions after week four of treatment"}, {"measurement": "Relative Reduction of total number of new T1 Gd+ lesions, Week 4", "setting": "[3]; vs placebo, Week 4, 95% CI −92%, 68%", "result": 22, "unit": "%"}, {"measurement": "Relative Reduction of total number of new T1 Gd+ lesions, Week 8", "setting": "[3]; vs placebo, Week 8, 95% CI 65%, 98%", "result": 92, "unit": "%"}, {"measurement": "Relative Reduction of total number of new T1 Gd+ lesions, Week 12", "setting": "[3]; vs placebo, Week 12, 95% CI 52%, 98%", "result": 90, "unit": "%"}, {"measurement": "Rate Ratio, adjusted (new T1Gd+ lesions)", "setting": "[3]; vs placebo, Weeks 4, 8, and 12 combined, 95% CI (0.149, 0.658)", "result": 0.313}, {"measurement": "Relative Reduction in new T1 Gd+ lesions", "setting": "[3]; vs placebo, Weeks 4, 8, and 12 combined, 95% CI (34%, 85%), p-value 0.0022", "result": 69, "unit": "%"}, {"measurement": "Relative Reduction of total number of new T1 Gd+ lesions, Weeks 8 and 12", "setting": "[3]; vs placebo, Weeks 8 and 12", "result": 92, "unit": "%"}, {"measurement": "Patients with ≥1 AE, %", "setting": "[4]; n = 73", "result": 38.4, "unit": "%"}, {"measurement": "Patients with ≥1 AE, %", "setting": "[4]; n = 73, listed as FEN", "result": 38, "unit": "%"}, {"measurement": "withdrawal: abnormal hepatic transaminase levels", "setting": "[4]; discontinuation required by protocol", "result": 4}, {"measurement": "AE grade", "setting": "[4]; double-blind treatment phase", "result": "All AEs were Grade 1 or 2, except for two Grade 3 asymptomatic liver transaminase level elevations"}, {"measurement": "AEs leading to withdrawal from the study", "setting": "[4]; double-blind treatment phase", "result": "four AEs leading to withdrawal from the study"}, {"measurement": "serious AEs or deaths", "setting": "[4]; double-blind treatment phase", "result": "No SAEs were reported"}, {"measurement": "serious AEs or deaths", "setting": "[4]; double-blind treatment phase, listed as FEN", "result": "No serious AEs or deaths were reported"}, {"measurement": "rate of infections", "setting": "[4]; fenebrutinib vs placebo arms", "result": "balanced between the fenebrutinib and placebo arms"}, {"measurement": "hepatic transaminase level elevations, character", "setting": "[4]; fenebrutinib-treated patients", "result": "reversible and asymptomatic"}, {"measurement": "withdrawal: hypersensitivity", "setting": "[4]; in vivo", "result": 1}, {"measurement": "withdrawal: upper abdominal pain", "setting": "[4]; in vivo", "result": 1}, {"measurement": "withdrawal: upper abdominal pain; nausea and headache", "setting": "[4]; in vivo", "result": 1}, {"measurement": "Abnormal hepatic enzyme levels, %", "setting": "[4]; [6]", "result": 5.5, "unit": "%"}, {"measurement": "Nasopharyngitis, %", "setting": "[4]; [6]", "result": 2.7, "unit": "%"}, {"measurement": "Upper abdominal pain, %", "setting": "[4]; [6]", "result": 2.7, "unit": "%"}, {"measurement": "Headache, %", "setting": "[4]; [7]", "result": 4.1, "unit": "%"}, {"measurement": "Nausea, %", "setting": "[4]; [7]", "result": 2.7, "unit": "%"}, {"measurement": "Pharyngitis, %", "setting": "[4]; [7]", "result": 2.7, "unit": "%"}, {"measurement": "Urinary tract infection, %", "setting": "[4]; most common AEs, n = 73, placebo 5.6", "result": 5.5, "unit": "%"}, {"measurement": "Patients with ≥1 AE leading to dose interruption, n (%)", "setting": "[4]; n = 73", "result": 0}, {"measurement": "Patients with ≥1 AE with fatal outcome, n (%)", "setting": "[4]; n = 73", "result": 0}, {"measurement": "Patients with ≥1 SAE, n (%)", "setting": "[4]; n = 73", "result": 0}, {"measurement": "Patients with ≥1 Grade 3 AE, %", "setting": "[4]; n = 73, placebo 0", "result": 2.7, "unit": "%"}, {"measurement": "Patients withdrawn from study due to an AE, %", "setting": "[4]; n = 73, placebo 0", "result": 9.6, "unit": "%"}, {"measurement": "Patients with ≥1 Related AE, %", "setting": "[4]; n = 73, placebo 5.6", "result": 13.7, "unit": "%"}, {"measurement": "Total no. of AEs", "setting": "[4]; n = 73, placebo 19", "result": 40}]}
